# Results taken from US8937183B2, “Detection of hydrogen peroxide” (Promega Corporation, priority 2011, dated 2015).
# Experiments:
# [1] = Signal strength differences due to reaction pH and buffer composition (hydrogen peroxide, D-cysteine conversion, LDR); format: biochemical; conditions: for Net Average Signals at 15 Minutes / Net Average Signals at 60 Minutes / Net Average Signals at 105 Minutes: 100 μl of 10 μM H2O2 added
# Protocol: A 30 μl sample of 4 mg/ml PBI 4458 in DMSO was diluted to 1.5 ml with Nanopure water, and 50 μl added to wells A1-12 and E1-12 of a microtiter plate. A 30 μl sample of 4 mg/ml PBI 4472 in DMSO was diluted to 1.5 ml with Nanopure, and 50 μl added to wells B1-12 and F1-12 of the plate. A 30 μl sample of 4 mg/ml PBI 4480 in DMSO was diluted to 1.5 ml with Nanopure water, and 50 μl added to wells C1-12 and G1-12 of the plate. A 30 μl sample of 4 mg/ml PBI 4481 in DMSO was diluted to 1.5 ml with Nanopure water, and 50 μl added to wells D1-12 and H1-12 of the plate. To the plate, a 50 μl sample of 200 mM KHPO4, pH 7.4 was added to wells A1-D4; 50 μl 200 mM Tris buffer, pH 7.4 was added to wells A5-D8; 50 μl 250 mM HEPES buffer, pH 7.5 was added to wells A9-D12; 50 μl 200 mM KHPO4 buffer, pH 9.2 was added to wells E1-H4; 50 μl 250 mM Tris buffer, pH 10.4 was added to wells E5-H8; and 50 μl 100 mM CAPS buffer, pH 10.4 was added to wells E9-H12.
# A sample of hydrogen peroxide (30%, Sigma, H1009-5 ml) was diluted to 10 μM with Nanopure water, and 100 μl added to columns 3, 4, 7, 8, 11, 12 wells A-H of the plate. 100 μl Nanopure water was added to columns 1, 2, 5, 6, 9 and 10 of the plate. The plate was incubated at room temperature for 15 minutes.
# A conversion solution was made by mixing 5 ml of 1 M HEPES buffer, pH 7.5, 4.9 ml of Nanopure water and 100 μl of 100 mM D-cysteine (in Nanopure water), and […] added to all wells of a luminometer plate.
# After incubation, 25 μl of sample from all wells in the plate was transferred and mixed into the corresponding wells in the luminometer plate, incubated 2-3 minutes at room temperature, and 50 μl LDR (Example 23) added. The luminometer plate was incubated for 15 minutes at room temperature, and bioluminescence detected on a GloMax® luminometer.
# Additional samples were taken at 60 and 105 minutes and added to a fresh luminometer plates containing 25 μl of conversion solution in all wells. The plates were then incubated for 15 minutes at room temperature, and bioluminescence detected as previously described.
# [2] = Light generation from compounds following incubation with hydrogen peroxide in different pH solutions (D-cysteine conversion, LDR); format: biochemical; conditions: for Signal to Background Ratios: signal with peroxide to background no peroxide
# Protocol: In this experiment, various compounds were tested for their ability to detect hydrogen peroxide in different pH solutions. Several compounds are shown to give much better signal strength and signal to background ratios than PBI 3048 (Example 23). 4 mg/ml solutions of compounds PBI 4480, 4481, 4452, 4470, 4472, 3048 (FIGS. 1 and 2) were made by dissolving them in DMSO (Fluka 41641). 30 μl of the compound solutions was diluted to 1.5 ml with Nanopure water, and 50 μl aliquots added as follows into a white, 96-well luminometer plate: PBI 4481, row A1-12; PBI 4480, row B1-12; PBI 4452, row C1-12; PBI 3048, row D1-12; PBI 4472, row E1-12 and PBI 4470, row F1-12.
# 25 μl of 200 mM TRIS buffer, pH 7.6 was added to wells A1-F4, 25 μl of 200 mM TRIS buffer, pH 8.8 was added to wells A5-F8, and 25 μl of 200 mM Tris buffer, pH 10.4 was added […].
# 30% hydrogen peroxide (Sigma H 1009-5 ml) was diluted to 40 μM in Nanopure water, and 25 μl added to columns 3, 4, 7, 8, 11 and 12 of the plate. 25 μl water was added to columns 1, 2, 5, 6, 9, and 10 of the plate, and the plate incubated at room temperature for 60 minutes.
# A conversion solution was made by mixing 100 μl of 100 mM D-cysteine, 1 ml Tris Buffer pH 8.8 and 8.9 ml nanopure water. After mixing, 80 μl of the solution was added to wells A1-F12 of a new luminometer plate.
# After incubation, 20 μl of sample from wells A1-F12 of the first plate was transferred to the same well in the new luminometer plate. The new plate was incubated at room temperature for 5 minutes, 100 μl of LDR (Example 23) was added to wells A1-F12, and bioluminescence detected on a Glo Max® luminometer (Promega).
# The RLUs for the duplicate wells were averaged. The averages for the wells containing hydrogen peroxide were compared to the wells without hydrogen peroxide at the same pH (Table 2). BZT is used to designate benzothiazole derivatives of the compounds.
# The Signal to Background (S/B) ratio is used to compare assay reagents with very difference signal strengths. An assay with a higher S/B ratio is often considered a better assay than one with a smaller S/B ratio (with all other factors being relatively equal).
structure (smiles),measurement,setting,value
"CC1(C)OB(c2ccc(COc3ccc4nc(C#N)sc4c3)cc2F)OC1(C)C [PBI 4481, 6-((3-fluoro-4-(4,4,5,5-tetramethyl-1,3,2-dioxaborolan-2-yl)benzyl)oxy)benzo[d]thiazole-2-carbonitrile]",Signal to Background Ratios at 15 Minutes,"[1]; CAPS pH 10.4, 15 minutes",15.0
same,Net Average Signals at 15 Minutes,"[1]; CAPS pH 10.4, 15 minutes","3,139,869 RLU"
same,Signal to Background Ratios at 60 Minutes,"[1]; CAPS pH 10.4, 60 minutes",15.6
same,Net Average Signals at 60 Minutes,"[1]; CAPS pH 10.4, 60 minutes","4,514,998 RLU"
same,Signal to Background Ratios at 105 Minutes,"[1]; CAPS pH 10.4, 105 minutes",12.3
same,Net Average Signals at 105 Minutes,"[1]; CAPS pH 10.4, 105 minutes","6,646,007 RLU"
same,Signal to Background Ratios at 15 Minutes,"[1]; HEPES pH 7.5, 15 minutes",1.4
same,Net Average Signals at 15 Minutes,"[1]; HEPES pH 7.5, 15 minutes","15,697 RLU"
same,Signal to Background Ratios at 60 Minutes,"[1]; HEPES pH 7.5, 60 minutes",2.5
same,Net Average Signals at 60 Minutes,"[1]; HEPES pH 7.5, 60 minutes","56,121 RLU"
same,Signal to Background Ratios at 105 Minutes,"[1]; HEPES pH 7.5, 105 minutes",3.0
same,Net Average Signals at 105 Minutes,"[1]; HEPES pH 7.5, 105 minutes","111,757 RLU"
same,Net Average Signals at 15 Minutes,"[1]; KPO4 Ph 7.4, 15 minutes","16,032 RLU"
same,Signal to Background Ratios at 15 Minutes,"[1]; KPO4 pH 7.4, 15 minutes",1.5
same,Signal to Background Ratios at 60 Minutes,"[1]; KPO4 pH 7.4, 60 minutes",2.2
same,Net Average Signals at 60 Minutes,"[1]; KPO4 pH 7.4, 60 minutes","48,355 RLU"
same,Signal to Background Ratios at 105 Minutes,"[1]; KPO4 pH 7.4, 105 minutes",2.7
same,Net Average Signals at 105 Minutes,"[1]; KPO4 pH 7.4, 105 minutes","108,403 RLU"
same,Signal to Background Ratios at 15 Minutes,"[1]; KPO4 pH 9.2, 15 minutes",4.7
same,Net Average Signals at 15 Minutes,"[1]; KPO4 pH 9.2, 15 minutes","189,573 RLU"
same,Signal to Background Ratios at 60 Minutes,"[1]; KPO4 pH 9.2, 60 minutes",8.3
same,Net Average Signals at 60 Minutes,"[1]; KPO4 pH 9.2, 60 minutes","494,981 RLU"
same,Signal to Background Ratios at 105 Minutes,"[1]; KPO4 pH 9.2, 105 minutes",7.7
same,Net Average Signals at 105 Minutes,"[1]; KPO4 pH 9.2, 105 minutes","974,784 RLU"
same,Signal to Background Ratios at 15 Minutes,"[1]; TRIS pH 10.4, 15 minutes",23.2
same,Net Average Signals at 15 Minutes,"[1]; TRIS pH 10.4, 15 minutes","1,467,615 RLU"
same,Signal to Background Ratios at 60 Minutes,"[1]; TRIS pH 10.4, 60 minutes",27.8
same,Net Average Signals at 60 Minutes,"[1]; TRIS pH 10.4, 60 minutes","2,780,433 RLU"
same,Signal to Background Ratios at 105 Minutes,"[1]; TRIS pH 10.4, 105 minutes",24.2
same,Net Average Signals at 105 Minutes,"[1]; TRIS pH 10.4, 105 minutes","4,441,956 RLU"
same,Signal to Background Ratios at 15 Minutes,"[1]; Tris pH 7.4, 15 minutes",1.9
same,Net Average Signals at 15 Minutes,"[1]; Tris pH 7.4, 15 minutes","29,382 RLU"
same,Signal to Background Ratios at 60 Minutes,"[1]; Tris pH 7.4, 60 minutes",3.5
same,Net Average Signals at 60 Minutes,"[1]; Tris pH 7.4, 60 minutes","111,440 RLU"
same,Signal to Background Ratios at 105 Minutes,"[1]; Tris pH 7.4, 105 minutes",4.4
same,Net Average Signals at 105 Minutes,"[1]; Tris pH 7.4, 105 minutes","245,489 RLU"
same,Signal to Background Ratios,[2]; pH 7.6,7.0
same,averaged RLUs (bioluminescence),"[2]; pH 7.6 TRIS buffer, No H2O2, 60 minutes","124,246 RLU"
same,averaged RLUs (bioluminescence),"[2]; pH 7.6 TRIS buffer, With H2O2 (25 μl of 40 μM added), 60 minutes","873,626 RLU"
same,Signal to Background Ratios,[2]; pH 8.8,21.1
same,averaged RLUs (bioluminescence),"[2]; pH 8.8 TRIS buffer, No H2O2, 60 minutes","135,530 RLU"
same,averaged RLUs (bioluminescence),"[2]; pH 8.8 TRIS buffer, With H2O2 (25 μl of 40 μM added), 60 minutes","2,854,279 RLU"
same,Signal to Background Ratios,[2]; pH 10.4,32.4
same,averaged RLUs (bioluminescence),"[2]; pH 10.4 Tris buffer, No H2O2, 60 minutes","230,459 RLU"
same,averaged RLUs (bioluminescence),"[2]; pH 10.4 Tris buffer, With H2O2 (25 μl of 40 μM added), 60 minutes","7,474,603 RLU"
